Data as given in ChEMBL document CHEMBL1158884, “PSII inhibitory activity of resorcinolic lipids from Sorghum bicolor” (J Nat Prod, 2003).
Activity calls are given as the source filed them. The calls are words filed in the database; no cut-off is given here.

Columns and labels:
Lactuca sativa [1] = assay: Phytotoxicity against Lactuca sativa assessed as inhibition of seedlings germination at 3.33 mM after 4 days; assay type: functional, organism-based
[2] = Inhibition of Photosystem 2 in spinach thylakoid membrane assessed as inhibition of photosynthetic oxygen evolution; assay type: cell membranes, Spinacia oleracea
Lactuca sativa [3] = assay: Phytotoxicity against Lactuca sativa assessed as inhibition of seedlings germination at 1.0 mM after 4 days; assay type: functional, organism-based

Row | IC50 [2] [nM] | Structure (SMILES) | Activity (Lactuca sativa [1]) | Activity (Lactuca sativa [3])
1 | 90 | C=CC/C=C\C/C=C\CCCCCCCc1c(O)c(OC)cc(OC)c1O | Active | Active
2 | 230 | CN(C)C(=O)Nc1ccc(Cl)c(Cl)c1 [DCMU] | – | –
3 | 200 | C=CC/C=C\C/C=C\CCCCCCCc1c(O)c(OC)cc(OCC)c1O [E565] | – | –

Row | Structure (SMILES) | IC50 [2] [nM] | Activity (Lactuca sativa [1]) | Activity (Lactuca sativa [3])
4 | C=CC/C=C\C/C=C\CCCCCCCC1=C(O)C(=O)C=C(OC)C1=O [SORGOLEONE] | 90 | Active | –
